This is an account of results in patent US8440670B2, “Pyridopyrazindione derivative and its use as an antiulcer drug” (Innovative Pharmacology Research OOO (IPHAR), priority 2010, dated 2013).

For orientation: Ki means a dissociation constant, usually derived from enzyme kinetics or from competition with a known ligand.

Series [1] has as its target T1, H,K-ATPase of rabbit gastric mucosa (Oryctolagus cuniculus, UniProt P27112).
T1 construct: a white layer was seen on the borderline of 4% and 12% Ficoll that was a microsome fraction, enriched with H,K-ATPase; from tissue; host or cells: rabbit gastric (stomach) mucosa microsomes
Description: Action on enzyme activity of H,K-ATPase of rabbit gastric mucosa (inorganic phosphate from ATP hydrolysis). The following applies: for IC50: read-out: I50, inhibition of H,K-ATPase. In kind it is biochemical. As to the method:
Microsome preparation, enriched with H+, K+-ATPase, was produced from the rabbit stomach mucosa using a method proposed by Farley and Faller.
Gastric mucosa was produced from a decapitated rabbit. All operations were carried out in ice. The stomach was cut at the greatest curve line, washed and scrubbed. Obtained mucosa was frozen and kept at −80° C. temperature.
To obtain a microsome preparation enriched with H,K-ATPase, gastric mucosa was defrozen and homogenized in extraction medium (0.25 mol sucrose, 5 mmol PIPES, 20 mmol Tris (THAM), ph 7.4) by a Polytron-class homogenizer (max rotations 30/sec). Mass ratio of tissue to extraction medium—1:20.
The homogenate was then centrifuged for 10 min at 10000 g. The sediment was discarded and supernatant was them centrifuged for 1 hour at 100000 g. The produced sediment was re-suspended in extraction medium (using the minimal volume necessary for re-suspension). The suspension was layered above Ficoll 400, prepared in the extraction medium: 12% Ficoll solution, 4% Ficoll solution. It was further centrifuged for 180 min at 100000 g. After centrifuging, a white layer was seen on the borderline of 4% and 12% Ficoll that was a microsome fraction, enriched with H,K-ATPase. The fraction was collected, divided into aliquots and kept at −80° C.
The effect was measured by the growth of inorganic phosphate that is produced during ATP hydrolysis. The concentration was measured using Ratbun and Betlah method. The incubation medium contained: 30 mmol imidazole, ph 7.4, 3 mmol MgCl2, 130 mmol NaCl, 20 mmol KCl, 3 mmol ATP, 2 mmol ouabain, 0.1 mmol EGTA, 2.25 μmol valinomycin, 5 mmol NaN3, 5 μmol of CCCP (Carbonyl cyanide m-chlorophenyl hydrazone).
Incubation medium and defrozen and homogenized microsome fraction were added into incubation sample. The sample was incubated for 20 min at 37° C., then the reaction was stopped by a cold stop-solution (3 mol sodium acetate, 3.7% formaldehyde, pH 4.3).
To evaluate the content of phosphate, produced during enzymatic hydrolysis of ATP, 2% ammonium molybdate solution and tin chloride solution (3 mg/ml) was into the sample. After the appearance of blue color, after 15 minutes, the samples were studied by colorimetry using wavelength of 650 nm
The H,K-ATPase activity was determined as activity inhibited by 0.1 mmol SCH-28080. […] The concentration of the studied compound was varied in range of 10^−8 to 10^−4 mol.
Possible competition between compound I and potassium ions was studied. To achieve this, the relation of H,K-ATPase and KCl concentration was studied, and then the inhibitory action of compound I on this enzyme in saturated (20 μmol) and unsaturated (2 μmol) concentrations of KCl was studied.

The subject of series [2] is stimulated gastric acid secretion. Description: Gastric secretion stimulated by histamine, pentagastrin and 1-aminopyrene. In kind it is in vivo, rats. Further details: inhibition of 1-aminopyrene-induced secretion: concentration or dose not given beside the values. As to the method:
2.2. Studying gastric secretion stimulated by histamine, pentagastrin and 1-aminopyrene.
The study was conducted using male rats weighting 180-200 g. The animals were deprived of food for 24 hours, water access was not limited. Before putting a ligature on the pylorus, one group of animals was administered histamine (2.5 mg/kg) subcutaneously, second group was administered pentagastrin ([…]) subcutaneously, third group was administered 1-aminopyrene 1 mg/kg. The studied compound was administered in 100 mg/kg dose as water suspension, with the addition of Tween-80,
1 and 3 hours before the ligature of pylorus. Control animals were given distilled water with the addition of Tween-80. Omeprazole in 50 mg/kg dose and famotidine in 25 and 50 mg/kg doses were used as the drugs of comparison. 4 hours after the operation stomach contents were studied: secretion volume per 100 g of animal mass, gastric acid pH, free hydrochloric acid and general acidity of gastric acid.

The test system of series [3] is basal gastric acid secretion. In words: Influence on basal secretion in rats (pylorus ligature). It is filed as in vivo. How it is done: 2.1. Studying the influence of the compound on basal secretion in rats.
The study was conducted using male rats weighting 180-200 g. The animals were deprived of food for 24 hours, water access was not limited. Using ether anesthesia their abdomens were opened and a ligature put on the pylorus. […] The studied compound was administered in 100 mg/kg dose as water suspension, with the addition of Tween-80, 60 minutes before the ligature of pylorus. Control animals were given distilled water with the addition of Tween-80. Omeprazole in 50 mg/kg dose and famotidine in 25 and 50 mg/kg doses were used as drugs of comparison.

The subject of another series is intestinal peristalsis. In words: Intestinal peristalsis study (activated charcoal). The following applies: mice, given 60 minutes before activated charcoal. It is filed as in vivo. As to the method: 3.1. Studying intestinal peristalsis.
The studied compounds were administered to male mice (body weight 22-24 g) by a tube into the stomach 60 minutes before the administration of activated charcoal (0.3 ml of 10% suspension into the stomach). After 2 hours the animals were sacrificed by CO2 and the length of small intestine filled with charcoal was measured in cm. Control group animals were administered 0.3 ml of water, cerucal in 25 mg/kg dose was chosen as the drug of comparison.

The format of series [4] is in vivo. The source says:
Studying the Toxicity (LD50) of Studied Compounds Following Single Administration

For a further series, the target named is H,K-ATPase (Homo sapiens, UniProt P20648). The note with it: K+-competitive; read-out: Ki (inhibition constant); cited from earlier work.
Sequence of H,K-ATPase (P20648 whole entry): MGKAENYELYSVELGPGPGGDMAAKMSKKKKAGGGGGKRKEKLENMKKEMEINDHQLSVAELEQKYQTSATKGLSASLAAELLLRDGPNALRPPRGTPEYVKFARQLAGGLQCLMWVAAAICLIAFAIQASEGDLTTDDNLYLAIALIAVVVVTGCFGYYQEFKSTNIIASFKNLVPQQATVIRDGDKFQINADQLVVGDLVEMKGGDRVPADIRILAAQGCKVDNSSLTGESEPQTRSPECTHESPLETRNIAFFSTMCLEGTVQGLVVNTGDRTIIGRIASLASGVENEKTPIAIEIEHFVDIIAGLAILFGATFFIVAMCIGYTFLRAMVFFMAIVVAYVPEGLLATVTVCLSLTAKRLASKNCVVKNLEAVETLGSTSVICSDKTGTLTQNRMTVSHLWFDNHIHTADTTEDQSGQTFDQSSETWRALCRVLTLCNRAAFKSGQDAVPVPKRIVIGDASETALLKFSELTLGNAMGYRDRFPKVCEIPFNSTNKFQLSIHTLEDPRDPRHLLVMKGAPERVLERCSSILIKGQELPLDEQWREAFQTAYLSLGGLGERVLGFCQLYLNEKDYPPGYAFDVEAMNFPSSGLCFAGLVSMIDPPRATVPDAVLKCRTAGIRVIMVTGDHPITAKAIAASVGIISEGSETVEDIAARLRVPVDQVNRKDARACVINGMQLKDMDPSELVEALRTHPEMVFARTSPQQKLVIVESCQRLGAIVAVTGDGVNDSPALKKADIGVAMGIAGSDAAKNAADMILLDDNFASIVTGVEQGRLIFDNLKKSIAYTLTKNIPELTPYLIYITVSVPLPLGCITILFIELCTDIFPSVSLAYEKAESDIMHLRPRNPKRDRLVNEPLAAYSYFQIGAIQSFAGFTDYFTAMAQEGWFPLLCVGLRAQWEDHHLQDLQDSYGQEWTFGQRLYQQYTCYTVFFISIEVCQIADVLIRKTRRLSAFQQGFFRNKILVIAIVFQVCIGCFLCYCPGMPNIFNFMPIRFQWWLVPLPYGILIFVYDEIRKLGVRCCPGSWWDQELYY
Sequence of H,K-ATPase (P51164 whole entry partner): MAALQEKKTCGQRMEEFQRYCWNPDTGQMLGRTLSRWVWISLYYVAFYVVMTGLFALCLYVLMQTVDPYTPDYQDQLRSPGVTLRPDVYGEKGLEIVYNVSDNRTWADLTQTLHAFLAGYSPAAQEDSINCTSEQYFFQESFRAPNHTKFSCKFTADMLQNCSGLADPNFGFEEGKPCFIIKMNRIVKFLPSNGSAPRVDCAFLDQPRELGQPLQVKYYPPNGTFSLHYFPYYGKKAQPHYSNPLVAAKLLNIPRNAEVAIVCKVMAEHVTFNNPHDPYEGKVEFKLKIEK

Where two headings read alike, the source gives them in different places.

T1 sequence (P27112 whole entry): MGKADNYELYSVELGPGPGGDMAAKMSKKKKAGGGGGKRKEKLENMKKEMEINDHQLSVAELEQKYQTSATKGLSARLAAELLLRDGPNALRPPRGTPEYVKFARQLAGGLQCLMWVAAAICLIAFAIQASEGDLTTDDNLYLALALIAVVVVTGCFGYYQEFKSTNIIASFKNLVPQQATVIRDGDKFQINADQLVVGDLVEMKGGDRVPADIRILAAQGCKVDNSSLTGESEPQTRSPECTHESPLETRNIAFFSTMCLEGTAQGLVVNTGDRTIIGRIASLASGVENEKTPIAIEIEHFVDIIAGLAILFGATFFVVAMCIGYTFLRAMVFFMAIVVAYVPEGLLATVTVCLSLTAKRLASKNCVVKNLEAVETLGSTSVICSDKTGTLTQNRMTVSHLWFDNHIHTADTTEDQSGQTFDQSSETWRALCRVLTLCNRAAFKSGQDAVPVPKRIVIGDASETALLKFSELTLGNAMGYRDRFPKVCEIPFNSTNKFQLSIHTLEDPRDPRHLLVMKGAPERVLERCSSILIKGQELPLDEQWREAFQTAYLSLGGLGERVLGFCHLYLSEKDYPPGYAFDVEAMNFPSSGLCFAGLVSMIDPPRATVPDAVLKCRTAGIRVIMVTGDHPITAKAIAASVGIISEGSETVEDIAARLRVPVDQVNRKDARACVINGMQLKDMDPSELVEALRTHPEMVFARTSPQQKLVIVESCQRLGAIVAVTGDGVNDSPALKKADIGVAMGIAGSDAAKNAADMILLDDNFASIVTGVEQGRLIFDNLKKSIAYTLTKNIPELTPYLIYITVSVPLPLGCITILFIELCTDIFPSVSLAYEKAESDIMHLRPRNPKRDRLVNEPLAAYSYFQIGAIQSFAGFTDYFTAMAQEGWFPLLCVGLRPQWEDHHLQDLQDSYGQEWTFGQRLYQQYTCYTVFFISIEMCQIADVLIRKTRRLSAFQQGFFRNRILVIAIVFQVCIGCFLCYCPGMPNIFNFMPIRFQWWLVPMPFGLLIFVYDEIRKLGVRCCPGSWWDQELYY
T1 sequence (P18597 whole entry partner): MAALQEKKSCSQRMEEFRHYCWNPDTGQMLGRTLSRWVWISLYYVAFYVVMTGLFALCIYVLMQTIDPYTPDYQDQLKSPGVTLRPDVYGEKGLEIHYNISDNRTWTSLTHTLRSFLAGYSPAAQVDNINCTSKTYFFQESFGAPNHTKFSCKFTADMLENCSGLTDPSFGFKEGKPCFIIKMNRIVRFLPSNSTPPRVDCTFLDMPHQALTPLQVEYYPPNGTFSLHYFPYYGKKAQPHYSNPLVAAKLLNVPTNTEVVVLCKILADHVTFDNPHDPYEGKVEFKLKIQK

As for `CCOc1ccc(CCN2CC(=O)N3CCCC(C4=CC(=O)C=CC4O)=C3C2=O)cc1` (centres unmarked) [Compound I, 9-(quinonil-2)-2-p-ethoxyphenylethyl-4,5,6,7,8,9,10,11-octahydropyrido[1,2-a]pyrazindione-1,4], the IC50 in series [1] (2 μmol KCl (unsaturated)) came out at 10000 nM; in series [1] (20 μmol KCl (saturated)), 1000 nM. For the same compound, in series [1] (2 and 20 μmol KCl), the “competition with K+ ions” value is listed as “does not compete with K+ ions”. The “reversibility of effect on H,K-ATPase” value in series [1] (dilution of enzyme-inhibitor complex) is on record as “reversible”. Also, the results for the “inhibition of histamine-induced secretion” value in series [2] (after 3 hours) and in series [2] (one hour after administration) were 57% and 40%, respectively. In addition, the “inhibition of 1-aminopyrene-induced secretion” value in series [2] (time not stated) was found to be 50%. For the same compound, in series [2] (time not stated), the “inhibition of pentagastrin-induced secretion” value is given as “about 54%”. In addition, the “inhibition of basal gastric acid secretion level” value in series [3] (100 mg/kg, time not stated) was “does not inhibit basal gastric acid secretion level”. Moreover, the “slowing of intestinal peristalsis” value with intestinal peristalsis was “does not influence peristalsis”. The general toxicity entry in series [4] (in vivo) was “low-toxic”.

For `CNc1nc2c(C)cccc2c2c1CCN2c1ccccc1C` [SK&F96356], the Ki at H,K-ATPase was 70 nM.

Take `NC(N)=Nc1nc(CSCCC(N)=NS(N)(=O)=O)cs1` [famotidine]: the results for the “inhibition of 1-aminopyrene-induced secretion” value in series [2] (after 1 hour) and in series [2] (after 3 hours) were 36% and 40%, respectively. Besides, the “inhibition of histamine-induced secretion” value in series [2] (after 3 hours) amounted to 95%; in series [2] (one hour after administration) it was 90%. In series [2] (time not stated), the “inhibition of pentagastrin-induced secretion” value is on record as 40%. The “inhibition of basal secretion” value is on record as 80% in series [3] (after three hours) and 56% in series [3] (one hour after administration). Moreover, in the series on intestinal peristalsis, the “slowing of intestinal peristalsis” value is “does not influence peristalsis”.

For `COc1ccc2[nH]c([S+]([O-])Cc3ncc(C)c(OC)c3C)nc2c1` (centres unmarked) [omeprazole], the figures for the “inhibition of histamine-induced secretion” value in series [2] (after 3 hours) and in series [2] (one hour after administration) were 80% and 70%, respectively. The “inhibition of 1-aminopyrene-induced secretion” value in series [2] (time not stated) is “about 90%”. Further, the “inhibition of pentagastrin-induced secretion” value in series [2] (time not stated) is reported as “about 90%”. The “inhibition of basal secretion” value in series [3] (after three hours) came to 40%; in series [3] (one hour after administration), 25%. Moreover, the “slowing of intestinal peristalsis” value with intestinal peristalsis worked out at 35%. The general toxicity result in series [4] (single administration) is recorded as “low-toxic”.

With SCH-28080, in series [1] (0.1 mmol inhibitor), the “inhibition of H,K-ATPase activity” value is “about 30%”.
